Source: article PMC2426711 (AIDS Research and Therapy, 2008)
Where two headings read alike, the source gives them in different places.

How the values were obtained:
HIV-1 [1] = test system: HIV-1; set-up: method as in PMID 15790304; conditions: cited from earlier work
vaginal mucosa = test system: vaginal mucosa; set-up: method as in PMID 11162774; conditions: vaginal toxicity, New Zealand White rabbit; cited from earlier work
R5-tropic HIV-1Ba-L [2] = test: Inhibition of infection of macrophages by R5-HIV-1Ba-L (p24 ELISA); type: cell-based; conditions: MΦ, mean ± 1 SD
Method: (§1) Primary X4-HIV-1NDK was grown in peripheral blood lymphocytes (PBL) of healthy donors stimulated with PHA and rhIL-2. R5-HIV-1Ba-L was amplified in monocyte-derived macrophages of healthy donors.
(§2) Cells were washed 2 times after 6 days of differentiation and seeded into 96-well culture plates (5 × 10^5 cells/well). HIV-1 (1 ng p24 antigen/ml) and increasing concentrations of molecules were added on cells and incubated for 3 hours at 37°C in a 5% CO2 atmosphere. Each sample was performed in triplicate. After 4 washes to remove exceeding virus, cells were cultured for 3 days. […] In this last case, supernatants were harvested and viruses produced were lysed by incubation for 45 minutes at 37°C with 1% Triton X-100.

X4-tropic HIV-1NDK [3] = test: Inhibition of infection of macrophages by X4-HIV-1NDK (p24 ELISA); type: cell-based; conditions: MΦ, mean ± 1 SD
Method: as §1, §2

R5-tropic HIV-1Ba-L [4] = test: Inhibition of infection of dendritic cells by R5-HIV-1Ba-L (p24 ELISA); type: cell-based; conditions: DC, mean ± 1 SD
Method: as §1, §2

X4-tropic HIV-1NDK [5] = test: Inhibition of infection of dendritic cells by X4-HIV-1NDK (p24 ELISA); type: cell-based; conditions: DC, mean ± 1 SD
Method: as §1, §2

R5-tropic HIV-1Ba-L [6] = test: Inhibition of infection of T cells by R5-HIV-1Ba-L (p24 ELISA); type: cell-based; conditions: mean ± 1 SD
Method: as §1, §2

X4-tropic HIV-1NDK [7] = test: Inhibition of infection of T cells by X4-HIV-1NDK (p24 ELISA); type: cell-based; conditions: mean ± 1 SD
Method: as §1, §2

R5-tropic HIV-1 = test system: R5-tropic HIV-1
Method: (§3) To assess the transmission of HIV-1 from MDDC to autologous T-cells, MDDC were incubated into 96-well culture plates (10^5 cells/well) and infected with HIV-1 (1 ng p24) in the presence of increasing concentrations of molecules for 3 hours at 37°C in a 5% CO2 atmosphere. Cells were washed four times and autologous stimulated T cells were added onto infected MDDC at a MDDC/T-cell ratio of 1/5 for 6 days. Each sample was performed in triplicate. Culture supernatants were harvested every 3 days and fresh medium was added. Supernatants were inactivated with 1% Triton X-100. The viral production by T lymphocytes was evaluated the sixth day of the co-culture by measurement of HIV-1 p24 antigen in supernatants using capture ELISA.
(§4) Culture supernatants were harvested after 7 of culture for measurement of HIV p24 antigen.

X4-tropic HIV-1 = test system: X4-tropic HIV-1
Method: as §3, §4

HIV-1 [8] = test system: HIV-1
[9] = test system: X4-tropic HIV-1 particles; conditions: 20 μM
Method: (§5) As expected, no viral production was detected in control wells containing triton X100-treated HIV-1 and activated PBL (negative control).
(§6) HIV-1 was adsorbed on poly-L-lysin pre-coated wells (Greiner Bio-One) at 4°C overnight and further incubated with C14 for 1 h. In positive and negative control wells, 1% Triton X-100 and medium were added, respectively. […] After 6 days, viral production was assessed by p24 Ag capture ELISA.

[10] = test system: R5-tropic HIV-1Ba-L particles
Method: as §5, §6

R5-tropic HIV-1Ba-L [11] = conditions: 1 μM, 3 hours
Method: Monocytes or PBL (10E5 cells) were adsorbed on a microscopy-adapted slide for 6 days. MDDC, MDM or PBL were infected in the presence of C14 diluted at 10 μM for 3 hours. Cells were then washed and incubated with or without polyclonal antibodies anti-gp160 (50 μg/ml) at 4°C for 30 minutes. Cells were washed with PBS 0.01% azide 0.5% BSA, and were labelled with polyclonal mouse anti-human IgG-FITC (Jackson ImmunoResearch Laboratories, West Grove, PA, USA) and then fixed with 1% paraformaldehyde. The coverslides were mounted in Mowiol (Sigma-Aldrich). The observations were made by sequential acquisition with a Zeiss LSM510 System, mounted on an Axiovert 100 M optical microscope (Carl Zeiss AG, Oberkochen, Germany), using a planapochromat ×63, 1.4 numerical aperture oil immersion objective. Optical sections were acquired, each one with an image resolution of 512 × 512 pixels.
Cells were incubated with R5-tropic HIV-1Ba-L in the presence of 1 μM of C14 for 3 hours. […]
Monocyte-derived macrophages, monocyte-derived dendritic cells and T cells were incubated with R5 viruses in the presence of increasing concentrations of C14 for 3 hours at 37°C. […] Cells were then analysed by confocal microscopy. […] 30 cells were at least analyzed for each donor.

CD4, CXCR4 and CCR5 = conditions: primary cells treated with C14
Method: Cell surface antigens were analyzed by FACSCalibur (Becton Dickinson, NJ, USA) using monoclonal antibodies (mAbs) conjugated with either fluorescein isothiocyanate (FITC) or phyco-erithryn (PE). Following incubation with different mAbs for 30 min at 4°C, cells were washed with PBS containing azide (0.01%), BSA (0.2%) and fixed using 1% formaldehyde PBS buffer.

[12] = test system: HIV-1 DNA (R5-HIV-1Ba-L or X4-HIV-1NDK); test: HIV-1 DNA content of primary cells by real time PCR; conditions: all primary cells, whatever the viral strain; increasing doses
Method: Genomic DNA was isolated from HIV-infected macrophages by using extraction protocol on a silica column system according to the manufacturer's instructions (Qiagen DNA minikit, AG, Basel, Switzerland). […] The LC-PCR master mix contained 1 × Fast-Start Taq DNA polymerase reaction buffer (Roche Applied Science), 3 mM MgCl2, 0.3 μM of each primer and probe. Cycling conditions were as follows: initial denaturation/FastStart Taq DNA polymerase activation at 95°C/10 minutes, 45 cycles of denaturation at 95°C/10 seconds, annealing and extension at 60°C/30 seconds with a ramp of 5°C/seconds. The first PCR cycle allowing fluorescence detection permitted to quantify HIV-1 DNA by reference to a standard curve (dilutions of 8E5 cell DNA). All reactions were performed in triplicate and tested in the same assay. […] The normalized value of cell-associated HIV-1 DNA loads corresponding to the ratio [(HIV-1 copy number/albumin copy number) × 2 × 10^6], was finally expressed as the number of HIV-1 DNA copies per 10^6 cells.
Monocyte-derived macrophages (A), monocyte-derived dendritic cells (B) and T cells (C) were incubated with R5 or X4 viruses in the presence of increasing concentrations of C14 or an unique dose of T 20 (5 μM) for 3 hours at 37°C. […] DNA was extracted and the viral DNA was quantified by real time PCR. […]

For `C=C(C)[C@@H]1CC[C@]2(C(=O)NCCCCCCCC(=O)N[C@@H](CC(C)C)[C@H](O)CC(=O)O)CC[C@]3(C)[C@H](CC[C@@H]4[C@@]5(C)CC[C@H](O)C(C)(C)[C@@H]5CC[C@]43C)[C@@H]12` [IC9564], the “inhibition of HIV-1 replication, active concentration” value (HIV-1 [1]) is given as “nanomolar concentrations”.
In the case of `C=C(C)[C@@H]1CC[C@]2(C(=O)O)CC[C@]3(C)[C@H](CC[C@@H]4[C@@]5(C)CC[C@H](OC(=O)CC(C)(C)C(=O)O)C(C)(C)[C@@H]5CC[C@]43C)[C@@H]12` [PA-457], the “inhibition of HIV-1 replication, active concentration” value (HIV-1 [1]) is listed as “nanomolar concentrations”.
In the case of `CCCCCCCCCc1ccc(OCCOCCOCCOCCOCCOCCOCCOCCOCCO)cc1` [nonoxynol-9], the “score of histological changes” value (vaginal mucosa) is given as “about 8 ± 3”.
In the case of zinc tetra-ascorbo-camphorate [C14], the IC50 (R5-tropic HIV-1Ba-L [2]) is reported as 1300 ± 1000 nM, the IC50 (X4-tropic HIV-1NDK [3]) is reported as 20 nM and the IC50 (R5-tropic HIV-1Ba-L [4]) is reported as 1300 ± 100 nM. The IC50 (X4-tropic HIV-1NDK [5]) was 1800 ± 100 nM, the IC50 (R5-tropic HIV-1Ba-L [6]) was 800 nM and the IC50 (X4-tropic HIV-1NDK [7]) was 700 ± 100 nM. For the same compound, the “inhibition of HIV-1 transfer from DC to T cells” value (R5-tropic HIV-1; 1 μM) was “about 95%”, the “inhibition of HIV-1 transfer from DC to autologous T cells” value (R5-tropic HIV-1; low concentrations) was “more than 90%” and the “inhibition of HIV-1 transfer from DC to T cells” value (X4-tropic HIV-1; 1 μM) was “about 95%”. For the same compound, the “inhibition of HIV-1 transfer from DC to autologous T cells” value (X4-tropic HIV-1; low concentrations) was “more than 90%”, the IC50 (HIV-1 [8]; different primary cells) was 1000 nM and the EC50 (HIV-1 [8]; infection of all the primary cells tested) was 1000 nM. The “disruption of HIV-1 particles” value [9] was 58 ± 2%, the “HIV-1 production by activated PBL, virus treated versus untreated with C14” value [10] was “similar” and the “inhibition of entry of viruses” value (R5-tropic HIV-1Ba-L [11]; T cells) was “inhibited the entry of viruses only into T cells”. For the same compound, the “inhibition of entry of viruses” value (R5-tropic HIV-1Ba-L [11]; macrophages and DCs) was “unlike in macrophages and DCs”, the “cell surface expressions of CD4, CXCR4 and CCR5” value (CD4, CXCR4 and CCR5) was “not altered” and the “reduction of the HIV-1 DNA content” value [12] was 2–3 log.
